Data as given in patent US8623883B2, “4-phenylamino-quinazolin-6-yl-amides” (Warner-Lambert Company LLC, priority 2004, dated 2014).
In brackets after ≈: the same amount, converted by molar mass.

Key:
ErbB4 = ErbB4 (Homo sapiens, UniProt Q15303); test: ELISA-based erbB kinase assay (ErbB4); format: biochemical; conditions: GST-erbB4 cytoplasmic fusion protein, 20 uM ATP, poly-Glu-Tyr substrate
Text: (§1) ErbB1, erbB2 and erbB4 cytoplasmic fusion proteins were made by cloning the erbB1 sequence (Met-668 to Ala1211), erbB2 (Ile-675 to Val-1256) and erbB4 sequence (Gly-259 to Gly-690) into the baculoviral vector pFastBac using Polymerase Chain Reaction (PCR). Proteins were expressed in Baculovirus-infected Sf9 insect cells as Glutathione S-Transferase (GST) fusion proteins. The proteins were purified by affinity chromatography using glutathione sepharose beads.
(§2) Inhibition of erbB tyrosine kinase activity was assessed using an ELISA-based receptor tyrosine kinase assay. Kinase reactions (50 mM HEPES, pH 7.4, 125 mM NaCl, 10 mM MgCl2, 100 μM sodium orthovanadate, 2 mM dithiothreitol, 20 uM ATP, test compound or vehicle control and 1-5 nM GST-erbB per 50 uL reaction) were run in 96-well plates coated with 0.25 mg/ml poly-Glu-Tyr (Sigma). The reactions were incubated for 6 minutes at room temperature while shaking. Kinase reactions were stopped by removal of reaction mixture, then wells were washed with wash buffer comprising 3% Bovine Serum Albumin and 0.1% Tween 20 in Phosphate Buffered Saline (PBS). Phosphorylated tyrosine residues were detected by adding 0.2 μg/ml anti-phosphotyrosine antibody (Oncogene Ab-4; 50 μL/well) coupled to Horse Radish Peroxidase (HRP) for 25 minutes while shaking at room temperature. The antibody was removed, and plates were washed (3% BSA and 0.1% Tween 20 in PBS). HRP substrate 3,3′,5,5′-tetramethylbenzidene (SureBlueTMB, Kirkegaard & Perry Labs) was added (50 μL per well) and incubated for 10-20 minutes while shaking at room temperature. The TMB reaction was stopped with the addition of 50 μL stop solution (0.09 N H2SO4). The signal was quantified by measuring absorbance at 450 nm. IC50 values were determined for test compounds using Microsoft Excel.

ErbB2 = ErbB2 (Homo sapiens (Human), UniProt P04626); test: ELISA-based erbB kinase assay (ErbB2); format: biochemical; conditions: GST-erbB2 cytoplasmic fusion protein, 20 uM ATP, poly-Glu-Tyr substrate
Text: as §1, §2

ErbB1 = ErbB1 (Homo sapiens (Human), UniProt P00533); test: ELISA-based erbB kinase assay (ErbB1); format: biochemical; conditions: GST-erbB1 cytoplasmic fusion protein, 20 uM ATP, poly-Glu-Tyr substrate
Text: as §1, §2

Aqueous solubility = format: physicochemical

Sequence of ErbB4 (Q15303 26-1308 limits assumed): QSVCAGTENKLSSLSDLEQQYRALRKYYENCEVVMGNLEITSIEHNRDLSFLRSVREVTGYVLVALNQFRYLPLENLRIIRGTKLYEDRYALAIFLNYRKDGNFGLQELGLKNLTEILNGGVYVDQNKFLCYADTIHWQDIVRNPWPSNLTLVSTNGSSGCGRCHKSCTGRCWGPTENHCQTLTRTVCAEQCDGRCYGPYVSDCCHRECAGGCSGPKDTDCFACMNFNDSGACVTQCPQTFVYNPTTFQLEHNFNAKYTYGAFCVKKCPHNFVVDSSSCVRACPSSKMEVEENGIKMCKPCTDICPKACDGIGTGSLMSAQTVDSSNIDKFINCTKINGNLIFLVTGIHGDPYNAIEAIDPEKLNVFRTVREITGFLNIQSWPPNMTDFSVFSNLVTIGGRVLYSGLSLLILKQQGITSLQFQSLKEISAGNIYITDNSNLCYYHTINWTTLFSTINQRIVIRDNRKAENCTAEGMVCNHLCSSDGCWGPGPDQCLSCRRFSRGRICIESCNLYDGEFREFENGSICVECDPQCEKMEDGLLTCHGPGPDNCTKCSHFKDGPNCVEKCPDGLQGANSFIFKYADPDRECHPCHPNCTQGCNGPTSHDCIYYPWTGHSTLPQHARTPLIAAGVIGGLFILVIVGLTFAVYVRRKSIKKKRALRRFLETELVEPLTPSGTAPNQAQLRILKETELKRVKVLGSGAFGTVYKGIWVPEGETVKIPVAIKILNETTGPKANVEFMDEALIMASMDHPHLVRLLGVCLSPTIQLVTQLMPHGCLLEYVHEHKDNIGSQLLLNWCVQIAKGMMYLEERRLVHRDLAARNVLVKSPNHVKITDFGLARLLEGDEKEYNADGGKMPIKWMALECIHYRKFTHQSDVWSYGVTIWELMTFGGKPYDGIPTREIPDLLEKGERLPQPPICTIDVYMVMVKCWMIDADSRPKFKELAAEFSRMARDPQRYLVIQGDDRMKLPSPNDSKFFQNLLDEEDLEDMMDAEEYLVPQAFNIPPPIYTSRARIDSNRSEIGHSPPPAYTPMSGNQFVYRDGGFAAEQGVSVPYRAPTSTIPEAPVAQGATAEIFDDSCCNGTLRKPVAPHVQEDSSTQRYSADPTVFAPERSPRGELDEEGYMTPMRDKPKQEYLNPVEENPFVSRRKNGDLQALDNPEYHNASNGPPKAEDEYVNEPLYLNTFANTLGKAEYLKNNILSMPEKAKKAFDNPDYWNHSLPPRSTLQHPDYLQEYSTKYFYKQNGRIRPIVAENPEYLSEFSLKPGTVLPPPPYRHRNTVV
Sequence of ErbB1 (P00533 668-1210 limits assumed): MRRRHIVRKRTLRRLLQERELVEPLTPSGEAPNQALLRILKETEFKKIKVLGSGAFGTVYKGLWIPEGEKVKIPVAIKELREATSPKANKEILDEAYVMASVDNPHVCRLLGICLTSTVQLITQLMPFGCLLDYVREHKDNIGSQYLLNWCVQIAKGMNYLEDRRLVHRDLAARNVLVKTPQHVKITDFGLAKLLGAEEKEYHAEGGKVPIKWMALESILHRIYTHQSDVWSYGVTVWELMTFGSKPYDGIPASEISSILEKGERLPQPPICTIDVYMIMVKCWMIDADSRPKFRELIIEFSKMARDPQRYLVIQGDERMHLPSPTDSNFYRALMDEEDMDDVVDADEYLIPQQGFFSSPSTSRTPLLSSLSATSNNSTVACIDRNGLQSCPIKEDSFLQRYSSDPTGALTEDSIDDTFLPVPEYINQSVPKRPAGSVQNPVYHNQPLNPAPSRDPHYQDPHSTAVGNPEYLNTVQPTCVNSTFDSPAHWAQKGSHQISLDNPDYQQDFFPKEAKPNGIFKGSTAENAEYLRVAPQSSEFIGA
Sequence of ErbB2 (P04626 675-1255 limits assumed): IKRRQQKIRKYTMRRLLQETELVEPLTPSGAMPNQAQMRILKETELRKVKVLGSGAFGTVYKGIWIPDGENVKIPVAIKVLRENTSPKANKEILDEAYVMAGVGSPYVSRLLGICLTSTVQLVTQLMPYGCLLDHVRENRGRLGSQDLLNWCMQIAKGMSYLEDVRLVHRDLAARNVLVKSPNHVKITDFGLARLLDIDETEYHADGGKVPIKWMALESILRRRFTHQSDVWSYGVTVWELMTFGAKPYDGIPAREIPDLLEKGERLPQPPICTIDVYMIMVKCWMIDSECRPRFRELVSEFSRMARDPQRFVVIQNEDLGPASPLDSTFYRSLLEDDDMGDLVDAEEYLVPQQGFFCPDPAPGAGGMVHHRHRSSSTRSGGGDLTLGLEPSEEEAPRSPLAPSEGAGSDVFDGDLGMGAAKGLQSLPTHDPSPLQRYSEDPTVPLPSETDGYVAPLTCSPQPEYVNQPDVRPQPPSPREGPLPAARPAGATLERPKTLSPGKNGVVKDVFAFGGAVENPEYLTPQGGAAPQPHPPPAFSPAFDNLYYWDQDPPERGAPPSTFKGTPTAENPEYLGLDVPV

| Structure (SMILES) | IC50 (ErbB4) [nM] | IC50 (ErbB2) [nM] | IC50 (ErbB1) [nM] | solubility (Aqueous solubility; aqueous medium, pH 6.3, aqueous buffer) [µg/mL] | change of aqueous solubility with pH (Aqueous solubility; at lower pHs (than 6.3)) |
| --- | --- | --- | --- | --- | --- |
| COc1cc2ncnc(Nc3ccc(F)c(Cl)c3)c2cc1NC(=O)/C=C/CN1CCC(F)CC1 [Example No. 9, 4-(4-Fluoro-piperidin-1-yl)-but-2-enoic acid [4-(3-chloro-4-fluoro-phenylamino)-7-methoxy-quinazolin-6-yl]-amide] | 147 | 247 |  |  |  |
| O=C(/C=C/CN1CCCCC1)Nc1cc2c(Nc3ccc(F)c(Cl)c3)ncnc2cc1OCCCN1CCOCC1 [Example No. 7, 4-Piperidin-1-yl-but-2-enoic acid [4-(3-chloro-4-fluoro-phenylamino)-7-(3-morpholin-4-yl-propoxy)-quinazolin-6-yl]-amide] | 61.5 |  | 11.3 |  |  |
| COc1cc2ncnc(Nc3ccc(F)c(Cl)c3)c2cc1NC(=O)/C=C/CN1CCCCCC1 [Example No. 10, 4-Azepan-1-yl-but-2-enoic acid [4-(3-chloro-4-fluoro-phenylamino)-7-methoxy-quinazolin-6-yl]-amide] | 41.3 | 86 | 12.1 |  |  |
| COc1cc2ncnc(Nc3ccc(F)c(Cl)c3)c2cc1NC(=O)/C=C/CN1CCCCC1 [Example No. 2, 4-Piperidin-1-yl-but-2-enoic acid [4-(3-chloro-4-fluoro-phenylamino)-7-methoxy-quinazolin-6-yl]-amide] |  |  |  | ~10 (≈ 21.3 µM) | increases |
| COc1cc2ncnc(Nc3ccc(F)c(Cl)c3)c2cc1NC(=O)/C=C/CN1CCCC(F)C1 (centres unmarked) [Example No. 8, 4-(3-Fluoro-piperidin-1-yl)-but-2-enoic acid [4-(3-chloro-4-fluoro-phenylamino)-7-methoxy-Quinazolin-6-yl]-amide] | 234 | 212 | 45.3 |  |  |
| O=C(/C=C/CN1CCCCC1)Nc1cc2c(Nc3ccc(F)c(Cl)c3)ncnc2cc1OCC(F)F [Example No. 6, 4-Piperidine-1-yl-but-2-enoic acid [4-(3-chloro-4-fluoro-phenylamino)-7-(2,2-difluoro-ethoxy)-quinazolin-6-yl]-amide] | 154 | 244 | 9.87 |  |  |
| O=C(/C=C/CN1CCCCC1)Nc1cc2c(Nc3ccc(F)c(Cl)c3)ncnc2cc1OCCF [Example No. 1, 4-Piperidin-1-yl-but-2-enoic acid [4-(3-chloro-4-fluoro-phenylamino)-7-(2-fluoro-ethoxy)-quinazolin-6-yl]-amide] | 77.5 |  | 6.44 |  |  |
